Reference: PubChem BioAssay AID1963974 (Molecular Pharmacology Branch, DTP, NCI, 2024)

Test system: 648629-189-R-J1-PDC spheroids with HUVEC/MSC, viability
Assay: Anticancer human tumor 648629-189-R-J1-PDC patient-derived bladder carcinoma cell line growth inhibition [PI3K]
Conditions: for IC50: curve of first compound; for viability, T/C: stronger effect = lower value
Summary of the method: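 Spheroid viability read-out. Co-cultures contained the tumor line plus HUVEC and human MSCs. Each agent was paired with a PI3K inhibitor (inavolisib, alpelisib, duvelisib, copanlisib) across half-log dilutions starting at clinical Cmax, or at 10 microM when Cmax was unknown.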

[1] = second compound 0.00316 µM, first compound 0.0316 µM
[2] = second compound 0.00316 µM, first compound 0.1 µM
[3] = second compound 0.01 µM, first compound 0.0316 µM
[4] = second compound 0.01 µM, first compound 0.1 µM
[5] = second compound 0.0316 µM, first compound 0.0316 µM
[6] = second compound 0.0316 µM, first compound 0.1 µM
[7] = second compound 0.1 µM, first compound 0.0316 µM
[8] = second compound 0.1 µM, first compound 0.1 µM
[9] = second compound 0.316 µM, first compound 0.0316 µM
[10] = second compound 0.316 µM, first compound 0.1 µM
[11] = second compound 1 µM, first compound 0.0316 µM
[12] = second compound 1 µM, first compound 0.1 µM
[13] = second compound 0.0316 µM, first compound 0.316 µM
[14] = second compound 0.0316 µM, first compound 1 µM
[15] = second compound 0.0316 µM, first compound 3.16 µM
[16] = second compound 0.0316 µM, first compound 10 µM
[17] = second compound 0.1 µM, first compound 0.316 µM
[18] = second compound 0.1 µM, first compound 1 µM
[19] = second compound 0.1 µM, first compound 3.16 µM
[20] = second compound 0.1 µM, first compound 10 µM
[21] = second compound 0.316 µM, first compound 0.316 µM
[22] = second compound 0.316 µM, first compound 1 µM
[23] = second compound 0.316 µM, first compound 3.16 µM
[24] = second compound 0.316 µM, first compound 10 µM
[25] = second compound 1 µM, first compound 0.316 µM
[26] = second compound 1 µM, first compound 1 µM
[27] = second compound 1 µM, first compound 3.16 µM
[28] = second compound 1 µM, first compound 10 µM
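Further: spheroids exposed to agents for seven days before reading.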
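Wherever viability, T/C is given: percent of vehicle control luminescence where 100% = DMSO treated spheroids.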

In the case of `CC(=O)c1c(C)c2cnc(Nc3ccc(N4CCNCC4)cn3)nc2n(C2CCCC2)c1=O` + COc1c(OCCCN2CCOCC2)ccc2c3n(c(=NC(=O)c4cnc(N)nc4)nc12)CCN3, the IC50 (second compound 0.00316 µM) is reported as greater than 0.1 µM, the IC50 (second compound 0.01 µM) is reported as greater than 0.1 µM and the IC50 (second compound 0.0316 µM) is reported as greater than 0.1 µM. It also gave an IC50 (second compound 0.1 µM) greater than 0.1 µM, an IC50 (second compound 0.316 µM) of less than 0.000316 µM and an IC50 (second compound 1 µM) of less than 0.000316 µM. It also gave a viability, T/C (second compound 0.00316 µM, first compound 0.000316 µM) of 106%, a viability, T/C (second compound 0.00316 µM, first compound 0.001 µM) of 98.1% and a viability, T/C (second compound 0.00316 µM, first compound 0.00316 µM) of 99.6%. For the same compound, the viability, T/C (second compound 0.00316 µM, first compound 0.01 µM) was 101%, the viability, T/C [1] was 117% and the viability, T/C [2] was 98.9%. The viability, T/C (second compound 0.01 µM, first compound 0.000316 µM) was 98.2%, the viability, T/C (second compound 0.01 µM, first compound 0.001 µM) was 110% and the viability, T/C (second compound 0.01 µM, first compound 0.00316 µM) was 99.8%. The viability, T/C (second compound 0.01 µM, first compound 0.01 µM) was 101%, the viability, T/C [3] was 103% and the viability, T/C [4] was 107%. It also gave a viability, T/C (second compound 0.0316 µM, first compound 0.000316 µM) of 89.7%, a viability, T/C (second compound 0.0316 µM, first compound 0.001 µM) of 100% and a viability, T/C (second compound 0.0316 µM, first compound 0.00316 µM) of 106%. For the same compound, the viability, T/C (second compound 0.0316 µM, first compound 0.01 µM) was 99.1%, the viability, T/C [5] was 89.4% and the viability, T/C [6] was 94.2%. The viability, T/C (second compound 0.1 µM, first compound 0.000316 µM) was 68.6%, the viability, T/C (second compound 0.1 µM, first compound 0.001 µM) was 66.8% and the viability, T/C (second compound 0.1 µM, first compound 0.00316 µM) was 64.8%. It also gave a viability, T/C (second compound 0.1 µM, first compound 0.01 µM) of 61%, a viability, T/C [7] of 70.1% and a viability, T/C [8] of 68.4%. It also gave a viability, T/C (second compound 0.316 µM, first compound 0.000316 µM) of 23.5%, a viability, T/C (second compound 0.316 µM, first compound 0.001 µM) of 23.2% and a viability, T/C (second compound 0.316 µM, first compound 0.00316 µM) of 22.4%. For the same compound, the viability, T/C (second compound 0.316 µM, first compound 0.01 µM) was 26.3%, the viability, T/C [9] was 27.6% and the viability, T/C [10] was 19.6%. For the same compound, the viability, T/C (second compound 1 µM, first compound 0.000316 µM) was 3.72%, the viability, T/C (second compound 1 µM, first compound 0.001 µM) was 3.62% and the viability, T/C (second compound 1 µM, first compound 0.00316 µM) was 3.08%. It also gave a viability, T/C (second compound 1 µM, first compound 0.01 µM) of 4%, a viability, T/C [11] of 4.37% and a viability, T/C [12] of 2.62%.

`Cn1nccc1Nc1nccc(-c2ccn(C(CO)c3ccc(Cl)c(F)c3)c(=O)c2)n1` (stereo unspecified) + COc1c(OCCCN2CCOCC2)ccc2c3n(c(=NC(=O)c4cnc(N)nc4)nc12)CCN3 showed an IC50 (second compound 0.00316 µM) greater than 10 µM, an IC50 (second compound 0.01 µM) greater than 10 µM and an IC50 (second compound 0.0316 µM) greater than 10 µM. For the same compound, the IC50 (second compound 0.1 µM) was greater than 10 µM, the IC50 (second compound 0.316 µM) was less than 0.0316 µM and the IC50 (second compound 1 µM) was less than 0.0316 µM. It also gave a viability, T/C [1] of 103%, a viability, T/C [2] of 92.3% and a viability, T/C (second compound 0.00316 µM, first compound 0.316 µM) of 106%. For the same compound, the viability, T/C (second compound 0.00316 µM, first compound 1 µM) was 103%, the viability, T/C (second compound 0.00316 µM, first compound 3.16 µM) was 98% and the viability, T/C (second compound 0.00316 µM, first compound 10 µM) was 79.2%. It also gave a viability, T/C [3] of 113%, a viability, T/C [4] of 96.8% and a viability, T/C (second compound 0.01 µM, first compound 0.316 µM) of 104%. For the same compound, the viability, T/C (second compound 0.01 µM, first compound 1 µM) was 111%, the viability, T/C (second compound 0.01 µM, first compound 3.16 µM) was 107% and the viability, T/C (second compound 0.01 µM, first compound 10 µM) was 79.4%. The viability, T/C [5] was 90.9%, the viability, T/C [6] was 91.4% and the viability, T/C [13] was 86.3%. It also gave a viability, T/C [14] of 110%, a viability, T/C [15] of 102% and a viability, T/C [16] of 79.2%. The viability, T/C [7] was 70.1%, the viability, T/C [8] was 65.7% and the viability, T/C [17] was 64.2%. It also gave a viability, T/C [18] of 83%, a viability, T/C [19] of 83.3% and a viability, T/C [20] of 68.8%. The viability, T/C [9] was 20.6%, the viability, T/C [10] was 21.1% and the viability, T/C [21] was 26.9%. It also gave a viability, T/C [22] of 28.3%, a viability, T/C [23] of 48.6% and a viability, T/C [24] of 44.5%. For the same compound, the viability, T/C [11] was 3.68%, the viability, T/C [12] was 3.03% and the viability, T/C [25] was 3.39%. The viability, T/C [26] was 3.34%, the viability, T/C [27] was 8.78% and the viability, T/C [28] was 9.04%.

`CC1(C)CCC(CN2CCN(c3ccc(C(=O)NS(=O)(=O)c4ccc(NCC5CCOCC5)c([N+](=O)[O-])c4)c(Oc4cnc5[nH]ccc5c4)c3)CC2)=C(c2ccc(Cl)cc2)C1` + CC(Nc1ncnc2nc[nH]c12)c1cc2cccc(Cl)c2c(=O)n1-c1ccccc1 showed an IC50 (second compound 0.0316 µM) greater than 10 µM, an IC50 (second compound 0.1 µM) greater than 10 µM and an IC50 (second compound 0.316 µM) greater than 10 µM. For the same compound, the IC50 (second compound 1 µM) was greater than 10 µM, the IC50 (second compound 3.16 µM) was greater than 10 µM and the IC50 (second compound 10 µM) was greater than 10 µM. For the same compound, the viability, T/C [5] was 112%, the viability, T/C [6] was 95.7% and the viability, T/C [13] was 97.3%. It also gave a viability, T/C [14] of 93.1%, a viability, T/C [15] of 83.4% and a viability, T/C [16] of 70.3%. For the same compound, the viability, T/C [7] was 102%, the viability, T/C [8] was 85% and the viability, T/C [17] was 104%. The viability, T/C [18] was 92.3%, the viability, T/C [19] was 89.4% and the viability, T/C [20] was 64%. It also gave a viability, T/C [9] of 92.2%, a viability, T/C [10] of 109% and a viability, T/C [21] of 95.8%. For the same compound, the viability, T/C [22] was 94.5%, the viability, T/C [23] was 97.9% and the viability, T/C [24] was 65.9%. The viability, T/C [11] was 95.6%, the viability, T/C [12] was 108% and the viability, T/C [25] was 102%. The viability, T/C [26] was 85.4%, the viability, T/C [27] was 90.2% and the viability, T/C [28] was 68.4%. For the same compound, the viability, T/C (second compound 3.16 µM, first compound 0.0316 µM) was 103%, the viability, T/C (second compound 3.16 µM, first compound 0.1 µM) was 101% and the viability, T/C (second compound 3.16 µM, first compound 0.316 µM) was 91.2%. The viability, T/C (second compound 3.16 µM, first compound 1 µM) was 99.5%, the viability, T/C (second compound 3.16 µM, first compound 3.16 µM) was 88.6% and the viability, T/C (second compound 3.16 µM, first compound 10 µM) was 60.1%. For the same compound, the viability, T/C (second compound 10 µM, first compound 0.0316 µM) was 83.7%, the viability, T/C (second compound 10 µM, first compound 0.1 µM) was 97% and the viability, T/C (second compound 10 µM, first compound 0.316 µM) was 87.8%. For the same compound, the viability, T/C (second compound 10 µM, first compound 1 µM) was 84.8%, the viability, T/C (second compound 10 µM, first compound 3.16 µM) was 68.9% and the viability, T/C (second compound 10 µM, first compound 10 µM) was 59.2%.
